Ends that are not written are not given here. Peptide text beside a SMILES is read from it. * marks the point of attachment. For = O=C*
Key:
[1] = test system: FSMCs; assay type: cell-based, mouse
Procedure: In brief, FSMCs (2×10^6 m^−1) were preloaded with or without anti-DNP-IgE (0.3 g ml^−1) in RPMI with IL-3 for 15 hours. Cells were washed and loaded with Fluo-4AM (5 μM, Life Technologies) for 30 minutes. Cells were washed again and further incubated in Tyrode's buffer with or without EGTA (1 mM) for 30 minutes. DNP-HSA (30 ng ml^−1), Ionomycin (1 μM) or δ-toxin (30 μg ml^−1) were used to induce calcium flux in these cells.

[2] = test system: MCs (FSMCs, BMCMCs, MC/9 cells); assay type: cell-based, mouse; conditions: in vitro; for effect on MC degranulation induced by δ-toxin: pre-treatment before δ-toxin stimulation
Procedure: Preparations of BMCMCs and fetal skin-derived mast cells (FSMCs) were previously described in Yamada, et al., J Invest Dermatol 121, 1425-1432 (2003). The purity of MCs was confirmed by surface expression of CD45 and CD117 (eBioscience).
Degranulation of MCs was assessed by β-hexosaminidase assay as previously described in Yamada, et al., J Invest Dermatol 121, 1425-1432, (2003). Briefly, MCs (2×10^6 m^−1) were preloaded with or without anti-DNP IgE (0.3 μg ml^−1) in RPMI with IL-3 for 15 hours. The cells were resuspended in Tyrode's buffer (Sigma) at 2×10^4 cells per 100 μl for FSMCs or 1×10^5 cells per 100 μl for BMCMCs and MC/9 cells, aliquoted in triplicate into a 96-well U-bottom plate and incubated with EGTA (1 mM, Sigma), LY294002 (100 μM, Sigma) and WRW4 (Trp-Arg-Trp-Trp-Trp-Trp-CONH2 (SEQ ID NO: […], American peptide) and Cyclosporine H (10 μM, Alexis Biochemicals) for 30 min, and then stimulated with DNP-HSA (30 ng ml^−1) TNP-HSA (30 nM) for 30 min, followed by exposure to Ionomycin (1 μM, Sigma) δ-toxin (indicated concentrations), PSMαs (indicated concentrations) or FPR2 ligands for 15 min. Results of various stimuli are given as a relative percentage, where freeze and thaw of total cell culture represents 100%.

[3] = test system: primary mouse macrophages and keratinocytes; test: Cell toxicity by LDH assay in primary mouse macrophages and keratinocytes
Procedure: Cell toxicity of δ-toxin. BMCMCs, BMMφ (bone marrow derived macrophages), bone marrow neutrophils and primary keratinocytes isolated from mice were stimulated with PSMα (10 μg ml−1) or δ-toxin (10 or 100 μg ml−1) for indicated times. Cell toxicity was measured by LDH assay. Data represent means±s.d. of triplicate cultures. NS; not significant, ***P<0.001, one-way ANOVA with Tukey's post-hoc test for multiple comparisons. Data are representative of two independent experiments.

[4] = test system: MC/9 cells; test: Viability of MCs after stimulation with synthetic PSMs (LDH release); conditions: synthetic peptides
Procedure: (a) % LDH released from MC/9 cells stimulated by medium alone (Ctrl) and indicated concentrations (μg ml^−1) of PSMs for 15 or 60 minutes. […] Data represent means±s.d. of triplicate cultures. Data are representative of three independent experiments.
Because δ-toxin is highly related to PSMα2 and PSMα3, the viability of MCs after stimulation with synthetic PSMα2, PSMα3, or δ-toxin, was assessed.

[5] = test system: MC degranulation in vivo; test: Passive cutaneous anaphylaxis (PCA) assay, Evans blue leakage in ear skin; conditions: mice pretreated with WRW4, then S. aureus culture supernatant intradermally
Procedure: To assess whether δ-toxin induces MC degranulation in vivo, synthetic δ-toxin was injected into the skin of mouse ears and MC degranulation was monitored by the vascular leakage of Evan's blue dye into the extravascular space using the passive cutaneous anaphylaxis (PCA) assay.
Four to six weeks later, the mice were subjected to experimental PCA or epicutaneous S. aureus sensitization. […] PCA assay was performed as described, with minor modifications. […] After inoculation, 0.1 ml of 5 mg ml −1 Evans blue dye was injected intravenously. Extravasation of Evans blue dye was monitored for 30 minutes, and 4 mm of punched-out biopsies were incubated at 63° C. overnight in 200 μl formamide. Quantitative analysis of extracts was determined by measuring the absorbance at 600 nm.

Molecule	effect on MC degranulation induced by δ-toxin [2]	cell viability / cell death in MCs [4]	further results
O=C(O)CN(CCOCCOCCN(CC(=O)O)CC(=O)O)CC(=O)O [EGTA, ethylene glycol tetraacetic acid]	blocked MC degranulation	–	effect on δ-toxin-triggered Ca2+ influx ([1]; EGTA 1 mM): abrogated
CCCCC[C@H](O)/C=C/C=C\C=C\C=C\[C@@H](O)[C@@H](O)CCCC(=O)O [Lipoxin A4]	–	–	induction of MC degranulation [2]: did not induce mouse MC degranulation
CC[C@H](C)[C@H](NC(=O)CNC(=O)[C@H](CCSC)NC=O)C(=O)N[C@H](C(=O)N[C@@H](C)C(=O)NCC(=O)N[C@H](C(=O)N[C@H](C(=O)N[C@@H](CCCCN)C(=O)N[C@H](C(=O)N[C@H](C(=O)N[C@@H](CCCCN)C(=O)N[C@@H](CO)C(=O)N[C@@H](CC(C)C)C(=O)N[C@H](C(=O)N[C@@H](CCC(=O)O)C(=O)N[C@@H](CCC(N)=O)C(=O)N[C@@H](Cc1ccccc1)C(=O)N[C@H](C(=O)NCC(=O)N[C@@H](CCCCN)C(=O)O)[C@@H](C)O)[C@@H](C)CC)[C@@H](C)CC)C(C)C)[C@@H](C)CC)[C@@H](C)CC)[C@@H](C)CC [PSMα2] (For-MGIIAGIIKVIKSLIEQFTGK-OH)	–	induced robust loss of cell viability	cell death [3]: triggered robust cell death
CC[C@H](C)[C@H](NC(=O)CNC(=O)[C@H](CCSC)NC=O)C(=O)N[C@H](C(=O)N[C@@H](C)C(=O)NCC(=O)N[C@H](C(=O)N[C@H](C(=O)N[C@@H](CCCCN)C(=O)N[C@@H](Cc1ccccc1)C(=O)N[C@H](C(=O)N[C@@H](CCCCN)C(=O)NCC(=O)N[C@@H](CC(C)C)C(=O)N[C@H](C(=O)N[C@@H](CCC(=O)O)C(=O)N[C@@H](CCCCN)C(=O)N[C@@H](Cc1ccccc1)C(=O)N[C@H](C(=O)NCC(=O)N[C@@H](CCCCN)C(=O)O)[C@@H](C)O)[C@@H](C)CC)[C@@H](C)CC)[C@@H](C)CC)[C@@H](C)CC)[C@@H](C)CC [PSMα3]	–	induced robust loss of cell viability	–
C[C@H](CCC(=O)O)C[C@H](C)C[C@H](C)C(=O)/C=C(\O)[C@H](C)C[C@H](C)C/C=C/[C@@H](C)[C@@H](O)[C@@H](C)[C@@H](O)C[C@@H]1CC[C@@](C)([C@H]2CC[C@@](C)([C@@H](C)O)O2)O1 [ionomycin]	–	–	induction of Ca2+ influx [1]: induced rapid Ca 2+ influx
CC[C@H](C)[C@H](NC(=O)[C@H](Cc1c[nH]c2ccccc12)NC(=O)[C@H](CCCCN)NC(=O)[C@@H](NC(=O)[C@H](CC(C)C)NC(=O)[C@H](CC(=O)O)NC(=O)CNC(=O)[C@@H](NC(=O)[C@@H](NC(=O)[C@H](CO)NC(=O)[C@@H](NC(=O)[C@@H](NC(=O)[C@H](CC(=O)O)NC(=O)[C@H](CCC(N)=O)NC(=O)[C@H](C)NC(=O)[C@@H](N)CCSC)[C@@H](C)CC)[C@@H](C)CC)[C@@H](C)O)[C@@H](C)CC)C(C)C)C(=O)N[C@H](C(=O)N[C@@H](CC(=O)O)C(=O)N[C@H](C(=O)N[C@H](C(=O)N[C@@H](CC(N)=O)C(=O)N[C@@H](CCCCN)C(=O)N[C@@H](Cc1ccccc1)C(=O)N[C@H](C(=O)N[C@@H](CCCCN)C(=O)N[C@@H](CCCCN)C(=O)O)[C@@H](C)O)C(C)C)[C@@H](C)O)[C@@H](C)CC [δ-toxin]	–	did not induce detectable cell death	–
LESIFRSLLFRVM [MMK1, human FPR2 ligand]	–	–	induction of MC degranulation [2]: did not induce mouse MC degranulation
Trp-Arg-Trp-Trp-Trp-Trp-CONH2 (WRWWWW-NH2) [WRW4]	inhibited MC degranulation	–	effect on MC degranulation induced by δ-toxin in vivo [5]: inhibited MC degranulation
pertussis toxin	partially reduced	–	–
